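Briefly, cells in 96-well plates were exposed to five compound concentrations for 48 h, and endpoints were estimated by linear interpolation. GI50 is the concentration that inhibits growth by half.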 The source made the active and inactive calls. Rule as the data show it: active = GI50 up to about 1.1 µM and inactive = higher.
Legend:
Test in all cases: DTP human tumour cell line panel, 48 h
SNB-75 = test system: SNB-75
KM12 = test system: KM12
HCT-15 = test system: HCT-15
SN12C = test system: SN12C
RXF 631 = test system: RXF 631
SF-295 = test system: SF-295
RXF 393 = test system: RXF 393
EKVX = test system: EKVX
UACC-62 = test system: UACC-62
M14 = test system: M14
786-0 = test system: 786-0
UO-31 = test system: UO-31
DLD-1 = test system: DLD-1
LOX IMVI = test system: LOX IMVI
SK-OV-3 = test system: SK-OV-3
ACHN = test system: ACHN
NCI-H226 = test system: NCI-H226
XF498 = test system: XF498
SK-MEL-28 = test system: SK-MEL-28
OVCAR-4 = test system: OVCAR-4
LXFL 529 = test system: LXFL 529
OVCAR-5 = test system: OVCAR-5
SNB-19 = test system: SNB-19
SK-MEL-5 = test system: SK-MEL-5
CCRF-CEM = test system: CCRF-CEM
IGROV-1 = test system: IGROV-1
A549 = test system: A549
U-251 = test system: U-251
SF-539 = test system: SF-539
OVCAR-8 = test system: OVCAR-8
HOP-18 = test system: HOP-18
SF-268 = test system: SF-268
NCI-H23 = test system: NCI-H23
TK-10 = test system: TK-10
HCC 2998 = test system: HCC 2998
DMS-273 = test system: DMS-273
A498 = test system: A498
MOLT-4 = test system: MOLT-4
K562 = test system: K562
HL-60 = test system: HL-60
SW-620 = test system: SW-620
HT-29 = test system: HT-29
DMS-114 = test system: DMS-114
COLO 205 = test system: COLO 205
SNB-78 = test system: SNB-78
NCI-H460 = test system: NCI-H460
OVCAR-3 = test system: OVCAR-3
SR = test system: SR
RPMI-8226 = test system: RPMI-8226
M19-MEL = test system: M19-MEL
Malme-3M = test system: Malme-3M

Cn1c2c(c3ccccc31)C1CCCCCCC1C1C(=O)OC(=O)C21 (stereo unspecified) was tested, and the GI50 (SNB-75) was 30.3 µM (inactive), the GI50 (KM12) was 38.9 µM (inactive) and the GI50 (HCT-15) was 30.2 µM. For the same compound, the GI50 (SN12C) was 39.5 µM (inactive), the GI50 (RXF 631) was 33.3 µM (inactive) and the GI50 (SF-295) was 35.2 µM (inactive). The GI50 (RXF 393) was 21.2 µM (inactive), the GI50 (EKVX) was 45.5 µM (inactive) and the GI50 (UACC-62) was 59.6 µM (inactive). For the same compound, the GI50 (M14) was 88.1 µM (inactive), the GI50 (786-0) was > 100 µM (inactive) and the GI50 (UO-31) was > 100 µM (inactive). The GI50 (DLD-1) was 33.6 µM (inactive), the GI50 (LOX IMVI) was 22.8 µM (inactive) and the GI50 (SK-OV-3) was 32.7 µM (inactive). For the same compound, the GI50 (ACHN) was 56 µM (inactive), the GI50 (NCI-H226) was 63 µM (inactive) and the GI50 (XF498) was 43.6 µM (inactive). The GI50 (SK-MEL-28) was 54.1 µM (inactive), the GI50 (OVCAR-4) was 53.8 µM (inactive) and the GI50 (LXFL 529) was 39.7 µM (inactive). The GI50 (OVCAR-5) was > 100 µM (inactive), the GI50 (SNB-19) was 44.8 µM (inactive) and the GI50 (SK-MEL-5) was 35.2 µM (inactive). The GI50 (CCRF-CEM) was 24.3 µM (inactive), the GI50 (IGROV-1) was 27.4 µM (inactive) and the GI50 (A549) was 36.9 µM (inactive). For the same compound, the GI50 (U-251) was 37.9 µM (inactive), the GI50 (SF-539) was 39.8 µM (inactive) and the GI50 (OVCAR-8) was 31.9 µM (inactive). For the same compound, the GI50 (HOP-18) was > 100 µM (inactive), the GI50 (SF-268) was 45.2 µM (inactive) and the GI50 (NCI-H23) was 69.7 µM (inactive). The GI50 (TK-10) was > 100 µM (inactive), the GI50 (HCC 2998) was 22.4 µM (inactive) and the GI50 (DMS-273) was 20 µM (inactive). The GI50 (A498) was 72.1 µM (inactive), the GI50 (MOLT-4) was 24.8 µM (inactive) and the GI50 (K562) was 31.3 µM (inactive). The GI50 (HL-60) was 30.8 µM (inactive), the GI50 (SW-620) was 32.4 µM (inactive) and the GI50 (HT-29) was 30.1 µM (inactive). The GI50 (DMS-114) was 29.1 µM (inactive), the GI50 (COLO 205) was 40.6 µM (inactive) and the GI50 (SNB-78) was > 100 µM (inactive). The GI50 (NCI-H460) was 36.8 µM (inactive), the GI50 (OVCAR-3) was 19.5 µM (inactive) and the GI50 (SR) was 29 µM (inactive). For the same compound, the GI50 (RPMI-8226) was 23.1 µM (inactive), the GI50 (M19-MEL) was 37.4 µM (inactive) and the GI50 (Malme-3M) was 11.9 µM (inactive).
